Converted amounts (≈) assume the structure as drawn. “And” between values parts separate entries of the source, which are not always exact repeats. Equal values may be shown once.
Experiments:
Assay in all cases: ≥ marks a high value that may be exact or a test limit, other limits are often not marked, values filed in µg/mL are converted to µM
[1] = tested on: Escherichia coli ATCC 25922
[2] = tested on: Staphylococcus aureus ATCC 25923
[3] = tested on: Pseudomonas aeruginosa ATCC 27853
[4] = tested on: Staphylococcus aureus ATCC 29213

Row | SMILES | MIC [1] | MIC [2] | MIC [3] | MIC [4]
1 | CC[C@H](C)[C@H](NC(=O)CNC(=O)[C@H](CCSC)NC(=O)[C@H](CCCCN)NC(=O)[C@H](C)NC(=O)[C@H](CC(C)C)NC(=O)[C@H](CCCCN)NC(=O)[C@H](CCC(=O)O)NC(=O)[C@H](CC(C)C)NC(=O)CNC(=O)[C@H](CCCN=C(N)N)NC(=O)[C@H](CC(C)C)NC(=O)[C@@H](NC(=O)[C@H](CO)NC(=O)[C@H](CC(C)C)NC(=O)[C@H](C)N)[C@@H](C)CC)C(=O)N[C@@H](C)C(=O)N[C@@H](CC(C)C)C(=O)N[C@H](C(=O)N[C@@H](CC(N)=O)C(=O)N[C@H]1CSSC[C@@H](C(=O)O)NC(=O)[C@H](CCCCN)NC(=O)[C@H](CCCCN)NC(=O)[C@H]([C@@H](C)O)NC(=O)[C@H](C)NC(=O)[C@H](CCCCN)NC1=O)[C@@H](C)O [ALSILRGLEKLAKMGIALTNCKATKKC] | 28 µM (≈ 80.5 µg/mL) |  |  | 
2 | C[C@H](NC(=O)[C@H](Cc1ccccc1)NC(=O)[C@H](CCCCN)NC(=O)[C@H](CCCCN)NC(=O)[C@H](C)NC(=O)[C@@H](N)Cc1ccccc1)C(=O)N[C@@H](CCCCN)C(=O)N[C@@H](CCCCN)C(=O)N[C@@H](Cc1ccccc1)C(=O)N[C@@H](CCCCN)C(N)=O [FAKKFAKKFK] | 193 µM (≈ 240 µg/mL) | 193 µM (≈ 240 µg/mL) | 193 µM (≈ 240 µg/mL) | 
3 | CC[C@H](C)[C@H](NC(=O)[C@@H](NC(=O)[C@@H]1CCCN1C(=O)CNC(=O)[C@@H](NC(=O)[C@@H](N)Cc1ccccc1)[C@@H](C)CC)[C@@H](C)CC)C(=O)N[C@@H](CO)C(=O)N[C@@H](C)C(=O)N[C@@H](CC(C)C)C(=O)N[C@@H](C)C(=O)N[C@@H](CO)C(=O)N[C@@H](CC(C)C)C(=O)N[C@@H](Cc1ccccc1)C(=O)NCC(N)=O [FIGPIISALASLFG] | > 60 µM | > 60 µM |  | 
4 | CC[C@H](C)[C@H](NC(=O)[C@H](CCCN=C(N)N)NC(=O)[C@H](CCC(N)=O)NC(=O)[C@@H](NC(=O)[C@@H](NC(=O)[C@H](CCCN=C(N)N)NC(=O)[C@H](CCCCN)NC(=O)[C@@H](N)Cc1ccccc1)[C@@H](C)CC)C(C)C)C(=O)N[C@@H](CCCCN)C(=O)N[C@@H](CC(=O)O)C(=O)NCC(=O)N[C@@H](CC(C)C)C(=O)N[C@@H](CCCN=C(N)N)C(=O)O [FKRIVQRIKDGLR] | 20 µM (≈ 32.6 µg/mL) |  |  | > 40 µM
5 | CC(C)[C@H](NC(=O)[C@@H]1CCCN1C(=O)[C@@H](N)Cc1ccccc1)C(=O)N[C@H](C(=O)N[C@@H](Cc1c[nH]c2ccccc12)C(=O)N[C@@H](CCCCN)C(=O)N[C@@H](Cc1c[nH]c2ccccc12)C(=O)N[C@@H](Cc1c[nH]c2ccccc12)C(=O)N[C@@H](CCCCN)C(=O)N[C@@H](Cc1c[nH]c2ccccc12)C(=O)N[C@@H](Cc1c[nH]c2ccccc12)C(=O)N[C@@H](CCCCN)C(=O)NCC(N)=O)[C@@H](C)O [FPVTWKWWKWWKG] | 5.3 µM and 8 µM | 20 µM (≈ 36.7 µg/mL) |  | 
6 | CC[C@H](C)[C@H](NC(=O)[C@@H](NC(=O)[C@@H](NC(=O)CNC(=O)[C@H](C)NC(=O)[C@@H](NC(=O)[C@H](CC(N)=O)NC(=O)[C@@H](NC(=O)[C@H](C)NC(=O)[C@H](CC(C)C)NC(=O)[C@H](CC(N)=O)NC(=O)[C@H](CCCCN)NC(=O)[C@@H](NC(=O)[C@@H](NC(=O)[C@H](CO)NC(=O)[C@H](Cc1ccccc1)NC(=O)[C@H](Cc1ccccc1)NC(=O)CN)[C@@H](C)O)C(C)C)[C@@H](C)O)C(C)C)[C@@H](C)O)C(C)C)C(=O)N[C@@H](CC(=O)O)C(=O)N[C@H](C(=O)N[C@@H](CC(C)C)C(=O)N[C@@H](CCCCN)C(=O)N[C@H]1CSSC[C@@H](C(=O)N[C@@H](CCCN=C(N)N)C(=O)N[C@@H](CO)C(=O)O)NC(=O)CNC(=O)CNC(=O)[C@H]([C@@H](C)O)NC(=O)[C@H](C(C)C)NC(=O)[C@H](CCCCN)NC1=O)[C@@H](C)O [GFFSTVKNLATNVAGTVIDTLKCKVTGGCRS] | 78 µM (≈ 249 µg/mL) |  |  | 
7 | CC[C@H](C)[C@H](NC(=O)CNC(=O)[C@H](CC(N)=O)NC(=O)[C@@H](NC(=O)[C@@H](NC(=O)CNC(=O)[C@@H](NC(=O)[C@H](CCCCN)NC(=O)[C@@H](NC(=O)CNC(=O)[C@H](CCCCN)NC(=O)CNC(=O)[C@@H](NC(=O)[C@@H](NC(=O)[C@H](CCCCN)NC(=O)[C@@H]1CCCN1C(=O)[C@H](Cc1ccccc1)NC(=O)[C@@H](NC(=O)CN)[C@@H](C)CC)[C@@H](C)CC)[C@@H](C)CC)[C@@H](C)CC)[C@@H](C)O)[C@@H](C)CC)C(C)C)C(=O)N[C@@H](CCCCN)C(=O)N[C@@H](CO)C(=O)N[C@@H](CC(C)C)C(=O)N[C@H](C(=O)N[C@@H](CCCCN)C(=O)NCC(=O)N[C@H](C(=O)NCC(=O)N[C@@H](CCSC)C(=O)N[C@@H](CCCCN)C(=O)N[C@H](C(=O)N[C@@H](Cc1ccccc1)C(=O)N[C@@H](CCCCN)C(=O)N[C@@H](C)C(=O)NCC(=O)N[C@@H](CC(C)C)C(=O)N[C@@H](CO)C(=O)N[C@@H](CC(N)=O)C(=O)N[C@H](C(=O)NCC(=O)N[C@@H](CC(N)=O)C(=O)N[C@H](C(=O)NCC(=O)N[C@H]1CSSC[C@@H](C(=O)O)NC(=O)[C@H](CCC(=O)O)NC(=O)[C@H](CC(=O)O)NC(=O)[C@H](CCC(=O)O)NC(=O)[C@H](CC(N)=O)NC1=O)[C@@H](C)O)[C@@H](C)CC)C(C)C)C(C)C)C(C)C [GIFPKIIGKGIKTGIVNGIKSLVKGVGMKVFKAGLSNIGNTGCNEDEC] | 1 µM (≈ 4.9 µg/mL) |  |  | 
8 | CC[C@H](C)[C@H](NC(=O)CN)C(=O)NCC(=O)N[C@@H](CCCCN)C(=O)N[C@@H](CC(C)C)C(=O)N[C@@H](Cc1ccccc1)C(=O)N[C@@H](CC(C)C)C(=O)N[C@@H](Cc1cnc[nH]1)C(=O)N[C@@H](C)C(=O)N[C@@H](C)C(=O)N[C@@H](CCCCN)C(=O)N[C@@H](CCCCN)C(=O)N[C@@H](Cc1ccccc1)C(=O)N[C@@H](C)C(=O)N[C@@H](CCCCN)C(=O)N[C@@H](C)C(=O)N[C@@H](Cc1ccccc1)C(=O)N[C@H](C(=O)N[C@@H](C)C(=O)N[C@@H](CCC(=O)O)C(=O)N[C@@H](CCCCN)C(=O)N[C@@H](CCSC)C(=O)N[C@@H](CC(N)=O)C(=O)N[C@@H](CO)C(=O)O)C(C)C [GIGKLFLHAAKKFAKAFVAEKMNS] |  |  |  | 38.4 µM (≈ 100 µg/mL)
9 | CC[C@H](C)[C@H](NC(=O)CNC(=O)[C@H](CCCCN)NC(=O)[C@@H](NC(=O)[C@H](CC(C)C)NC(=O)[C@H](CO)NC(=O)CNC(=O)[C@H](CC(C)C)NC(=O)CNC(=O)[C@H](C)NC(=O)[C@H](CCCCN)NC(=O)[C@H](Cc1ccccc1)NC(=O)[C@@H](NC(=O)[C@H](CC(=O)O)NC(=O)[C@H](CCCCN)NC(=O)[C@H](CC(C)C)NC(=O)CN)[C@@H](C)CC)C(C)C)C(=O)N[C@@H](C)C(=O)N[C@@H](C)C(=O)N[C@@H](Cc1cnc[nH]1)C(=O)N[C@H](C(=O)N[C@@H](C)C(=O)N[C@@H](CC(N)=O)C(N)=O)C(C)C [GLKDIFKAGLGSLVKGIAAHVAN] | 25 µM (≈ 57 µg/mL) | 200 µM (≈ 456 µg/mL) |  | 
10 | CC(C)C[C@H](NC(=O)CN)C(=O)N[C@@H](CC(C)C)C(=O)N[C@@H](CC(=O)O)C(=O)N[C@@H](Cc1ccccc1)C(=O)N[C@@H](CC(C)C)C(=O)N[C@@H](CCCCN)C(=O)N[C@@H](C)C(=O)N[C@@H](C)C(=O)NCC(=O)N[C@@H](CCCCN)C(=O)NCC(=O)N[C@@H](CC(C)C)C(=O)N[C@H](C(=O)N[C@@H](CO)C(=O)N[C@@H](CC(N)=O)C(=O)N[C@@H](CC(C)C)C(=O)N[C@@H](CC(C)C)C(=O)N[C@@H](CCC(=O)O)C(=O)N[C@@H](CCCCN)C(N)=O)C(C)C [GLLDFLKAAGKGLVSNLLEK] | 15 µM (≈ 31.3 µg/mL) | 15 µM (≈ 31.3 µg/mL) |  | 
11 | CC[C@H](C)[C@H](NC(=O)[C@H](CCCN=C(N)N)NC(=O)[C@H](CCCCN)NC(=O)[C@H](CC(C)C)NC(=O)[C@@H](NC(=O)CN)C(C)C)C(=O)N[C@@H](CCCCN)C(=O)N[C@H](C(=O)N[C@@H](CC(C)C)C(=O)N[C@H](C(N)=O)C(C)C)[C@@H](C)O [GVLKRIKTLV] | > 200 µM |  |  | 
12 | CC(C)C[C@H](NC(=O)[C@H](C)NC(=O)[C@@H](N)CCCCN)C(=O)N[C@@H](Cc1c[nH]c2ccccc12)C(=O)N[C@@H](CCCCN)C(=O)N[C@H](C(=O)N[C@@H](CC(C)C)C(=O)N[C@@H](CC(C)C)C(=O)N[C@@H](CCCCN)C(=O)N[C@@H](CCCCN)C(=O)N[C@H](C(=O)N[C@@H](CC(C)C)C(=O)N[C@@H](CCCCN)C(=O)N[C@@H](C)C(N)=O)C(C)C)[C@@H](C)O [KALWKTLLKKVLKA] | 3 µM (≈ 4.92 µg/mL) | 25 µM (≈ 41 µg/mL) |  | 
13 | CSCC[C@H](NC(=O)[C@H](CCCN=C(N)N)NC(=O)[C@H](Cc1c[nH]c2ccccc12)NC(=O)[C@H](C)NC(=O)[C@H](Cc1c[nH]c2ccccc12)NC(=O)[C@H](CCCN=C(N)N)NC(=O)[C@H](Cc1ccc(O)cc1)NC(=O)[C@H](Cc1c[nH]c2ccccc12)NC(=O)[C@H](CCCN=C(N)N)NC(=O)[C@@H](N)CCCN=C(N)N)C(=O)N[C@@H](CCCN=C(N)N)C(N)=O [RRWYRWAWRMR] | 5.8 µM (≈ 9.99 µg/mL) | 2.9 µM (≈ 5 µg/mL) | 4.35 µM (≈ 7.5 µg/mL) | 
14 | CC[C@H](C)[C@H](NC(=O)[C@H](Cc1c[nH]c2ccccc12)NC(=O)[C@H](CCCN=C(N)N)NC(=O)[C@H](Cc1c[nH]c2ccccc12)NC(=O)[C@H](Cc1c[nH]c2ccccc12)NC(=O)[C@H](CCCN=C(N)N)NC(=O)[C@H](CCCN=C(N)N)NC(=O)[C@H](Cc1c[nH]c2ccccc12)NC(=O)[C@@H](N)CCCN=C(N)N)C(N)=O [RWRRWWRWI] | 10.7 µM (≈ 16 µg/mL) |  |  | 
15 | CC(C)C[C@H](NC(=O)[C@H](CCCCN)NC(=O)CNC(=O)[C@@H](N)CO)C(=O)N[C@@H](Cc1ccc(O)cc1)C(=O)N[C@@H](Cc1ccc(O)cc1)C(=O)N[C@@H](CCCN=C(N)N)C(=O)N[C@@H](CCCN=C(N)N)C(=O)N[C@@H](CCCCN)C(=O)N[C@@H](CCCCN)C(N)=O [SGKLYYRRKK] |  | > 100 µM | > 100 µM | 
16 | CC(C)C[C@H](NC(=O)[C@H](CC(C)C)NC(=O)[C@H](CC(N)=O)NC(=O)[C@H](CCCCN)NC(=O)[C@H](CC(C)C)NC(=O)[C@H](CC(=O)O)NC(=O)[C@@H](N)C(C)C)C(=O)N[C@@H](CCCCN)C(=O)O [VDLKNLLK] |  |  | 32 µM (≈ 30.1 µg/mL) | 
17 | C[C@H](NC(=O)[C@H](Cc1c[nH]c2ccccc12)NC(=O)[C@H](CCCN=C(N)N)NC(=O)[C@H](Cc1c[nH]c2ccccc12)NC(=O)[C@H](C)NC(=O)[C@H](CCCCN)NC(=O)[C@@H](N)Cc1ccc(O)cc1)C(=O)N[C@@H](Cc1c[nH]c2ccccc12)C(=O)N[C@@H](CCCN=C(N)N)C(=O)N[C@@H](Cc1c[nH]c2ccccc12)C(=O)N[C@@H](CCCCN)C(N)=O [YKAWRWAWRWK] | 4.58 µM (≈ 7.5 µg/mL) | 3.05 µM (≈ 5 µg/mL) | 12.2 µM (≈ 20 µg/mL) | 

From DBAASP
